Where two headings read alike, the source gives them in different places.
Key:
[1] = cited from earlier work
[2] = mouse, in vivo
Text: (§1) Blank human plasma was obtained from healthy donors. […] All biological specimens were stored at -20C until analysis. […] However, […]

[3] = Tissue distribution of doxorubicin and metabolites in wild-type and mdr1a(-/-) mice (HPLC); settings: 24 h after drug administration
Text: as §1

[4] = Urinary and faecal excretion of doxorubicin and metabolites within 96 h (metabolic cages); settings: for Excretion in faeces / Excretion in urine: within 96 h after i.v. 5 mg kg-1 doxorubicin
Procedure: Drug and metabolite concentrations were determined in plasma, tissues, urine and faeces by high-performance liquid chromatography. […] The animals were housed and handled according to institutional guidelines. Food (Hope Farms, Woerden, The Netherlands) and acidified water were given ad libitum. […] Bovine serum albumin (BSA) was obtained from Organon Teknika (Boxtel, The Netherlands). All other reagents were of analytical or Lichrosolv gradient grade and were purchased from E Merck (Darmstadt, Germany). Water was purified by the Milli-Q Plus system (Millipore, Milford, USA). Blank human plasma was obtained from healthy donors. […] The excretion study was performed with two groups of six animals, whereas in the other pharmacokinetic experiments three or four animals were used per time point. Tissue and blood samples were taken at 1, 4 and 24 h after drug adminis- tration. Blood was obtained by orbital bleeding under diethyl ether anaesthesia and collected in heparinized tubes. The animals were sacrificed by cervical dislocation to collect the following tissues: brain, skeletal muscle, colon, caecum, small gut, stomach, liver (without gall bladder), kidney, lung, spleen, heart, ovary, uterus and breast. The tissues were homogenized with a Polytron tissue homogenizer (Kinematica, Littau, Switzerland) in 4% (w/v) BSA in water, resulting in final concentrations of approximately 0.05-0.2 g tissue ml-1. Additional blood samples were obtained at 5, 15, 30 and 45 min and at 2, 8, 16, 30, 40, 56 and 64 h after drug administration. Blood samples were centrifuged (10 min, 2000 g, 4C) to separate the plasma fraction, which was stored for analysis. Urine and faeces from mice kept in Ruco Type M/1 stain- less-steel metabolic cages (Valkenswaard, The Netherlands) were collected during time intervals of 0-8, 8-24, 24-48, 48-72 and 72-96 h after drug administration. Homogenization of faeces in 4% (w/v) BSA in water (0.03-0.1 g faeces ml-1) was according to the procedure described above for tissue specimens. All biological specimens were stored at -20C until analysis. […] In brief, dilutions of faeces homogenate (20-fold) and urine (100-fold) were prepared in blank human plasma, all other specimens were used without further dilution.

[5] = Plasma pharmacokinetics of doxorubicin and metabolites after i.v. bolus in wild-type and mdr1a(-/-) mice (HPLC); settings: for half-life / concentration at 1 h / concentration at 4 h / concentration at 24 h / AUC(0-t) / clearance / Vd: female, FVB, mouse, iv; for half-life: in vivo, t1/2(), elimination half-life; for half-life / AUC(0-t) / clearance / Vd: 5 mg/kg; for concentration at 1 h / concentration at 4 h / concentration at 24 h / AUC(0-t) / clearance / Vd: plasma; for concentration at 1 h / concentration at 4 h / concentration at 24 h: 5 mg kg-1, Plasma level; for concentration at 1 h: 1 h after i.v. 5 mg kg-1 doxorubicin; for concentration at 4 h: 4 h after i.v. 5 mg kg-1 doxorubicin; for concentration at 24 h: 24 h after i.v. 5 mg kg-1 doxorubicin; for AUC(0-t): AUC(0-64), area under the plasma concentration-time curve up to 64 h; for clearance: Cl; for Vd: volume of distribution
Text: as §1

mdr1a transfected cells = system: mdr1a transfected cells; set-up: method as in Tang-Wai et al, 1995; settings: ref Tang-Wai et al, 1995; cited from earlier work
[6] = over 48 h, ref Van Asperen et al, 1996, cited from earlier work
[7] = mdr1a(-/-) mice, i.v. bolus 5 mg kg-1
[8] = wild-type mice, i.v. bolus 5 mg kg-1

cyclosporin A
mortality on co-administration with doxorubicin ([1]; non-tumour-bearing mice, ref Colombo et al, 1994, Bellamy et al, 1995, Gonzalez et al): high mortality

COc1cccc2c1C(=O)c1c(O)c3c(c(O)c1C2=O)C[C@@](O)(C(=O)CO)C[C@@H]3O[C@H]1C[C@H](N)[C@H](O)[C@H](C)O1 [doxorubicin]
tolerability of dose level [2]: well tolerated
doxorubicin concentration in heart on co-administration of reversal agent ([1]; ref Bellamy et al, 1995): up to twofold higher
absolute concentration in hearts of mdr1a(-/-) mice compared with wild-type [3]: more than twofold higher
dose excreted unchanged in faeces ([4]; within 96 h after administration, wild-type mice): 5%
Excretion in faeces ([4]; mdr1a(-/-) mice): 4.1 percentage of the administered dose
Excretion in urine ([4]; mdr1a(-/-) mice): 15.4 percentage of the administered dose
Excretion in faeces ([4]; wild-type mice): 5.2 percentage of the administered dose
Excretion in urine ([4]; wild-type mice): 10.9 percentage of the administered dose
half-life [5, 7]: 24.8 h
half-life [5, 8]: 15.7 h
concentration at 1 h ([5]; mdr1a(-/-) mice): 110 nM
concentration at 1 h ([5]; wild-type mice): 130 nM
concentration at 4 h ([5]; mdr1a(-/-) mice): 66.2 nM
concentration at 4 h ([5]; wild-type mice): 70.9 nM
concentration at 24 h ([5]; mdr1a(-/-) mice): 28.2 nM
concentration at 24 h ([5]; wild-type mice): 16.3 nM
AUC(0-t) [5, 7]: 2.27 µM·h
AUC(0-t) [5, 8]: 1.82 µM·h
clearance [5, 7]: 60 mL/min/kg
clearance [5, 8]: 75 mL/min/kg
Vd [5, 7]: 128 L/kg
Vd [5, 8]: 101 L/kg
AUC, mdr1a(-/-) in comparison with wild-type mice ([5]; i.v. bolus 5 mg kg-1): 1.2 fold
Vd, mdr1a(-/-) in comparison with wild-type mice ([5]; i.v. bolus 5 mg kg-1): 1.3 fold
terminal half-life, mdr1a(-/-) in comparison with wild-type mice ([5]; i.v. bolus 5 mg kg-1): 1.6 fold
resistance of mdr1a transfected cells in comparison with non-P-glycoprotein-expressing parental cells (mdr1a transfected cells): 35 fold

CC[C@]1(O)C[C@@H]2CN(CCc3c([nH]c4ccccc34)[C@@](C(=O)OC)(c3cc4c(cc3OC)N(C)[C@H]3[C@@](O)(C(=O)OC)[C@H](OC(C)=O)[C@]5(CC)C=CCN6CC[C@]43[C@@H]65)C2)C1 [vinblastine]
i.v. administered dose excreted unchanged in the faeces ([6]; mdr1a(-/-) mice): 10%
i.v. administered dose excreted unchanged in the faeces ([6]; wild-type mice): 24%
resistance of mdr1a transfected cells in comparison with non-P-glycoprotein-expressing parental cells (mdr1a transfected cells): 53 fold

— paper PMC2362153 (British Journal of Cancer, 1999)
